The values that follow come from US20090221653A1, “7-(2-amino-1-hydroxy-ethyl)-4-hydroxybenzothiazol-2(3H)-one-derivatives as beta2 adrenoreceptor agonists” (AstraZeneca AB, priority 2005, published 2009).

Counter-ions that a name gives are not always drawn.

Test [1] concerns the target T1, recombinant human adrenergic beta 1 receptors (Homo sapiens, UniProt P08588).
T1 construct: purchased Euroscreen
Kind of test: Adrenergic β1 selectivity assay, inhibition of [125I]-Iodocyanopindolol binding. Conditions: membranes, [125I]-Iodocyanopindolol; read-out: β1 bind pIC50 (converted).

A further test has as its target T2, Adrenergic β2 (Homo sapiens, UniProt P07550).
T2 construct: endogenous in cells; host or cells: H292 cells
Kind of test: Alternative Adrenergic β2 Mediated cAMP Production in H292 cells (AlphaScreen cAMP detection). It counts as cell-based. Conditions: for EC50: cAMP, test compounds incubated 60 minutes, 300 μM rolipram, read-out: β2 pEC50 (converted); for β2 Int Act: fraction relative to the maximum activity determined for formoterol, 60 minutes incubation.

Test [2] addresses T3, recombinant human α1D receptor (Homo sapiens, UniProt P25100).
T3 construct: expressed in transfected cells; host or cells: HEK293
T3 sequence (P25100 1-572): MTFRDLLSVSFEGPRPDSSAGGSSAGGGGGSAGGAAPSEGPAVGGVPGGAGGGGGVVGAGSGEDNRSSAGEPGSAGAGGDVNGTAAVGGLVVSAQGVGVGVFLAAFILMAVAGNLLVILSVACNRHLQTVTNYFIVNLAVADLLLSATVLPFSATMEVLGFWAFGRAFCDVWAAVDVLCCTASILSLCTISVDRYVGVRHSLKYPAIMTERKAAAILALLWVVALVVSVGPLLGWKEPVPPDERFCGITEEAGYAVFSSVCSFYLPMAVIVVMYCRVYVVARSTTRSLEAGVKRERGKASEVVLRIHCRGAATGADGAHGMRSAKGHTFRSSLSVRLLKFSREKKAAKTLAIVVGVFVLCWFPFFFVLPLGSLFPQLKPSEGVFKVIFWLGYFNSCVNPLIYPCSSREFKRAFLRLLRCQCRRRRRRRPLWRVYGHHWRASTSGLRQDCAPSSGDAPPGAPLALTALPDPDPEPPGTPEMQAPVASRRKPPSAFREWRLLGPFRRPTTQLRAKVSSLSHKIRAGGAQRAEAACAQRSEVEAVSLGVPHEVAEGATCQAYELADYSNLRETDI
Kind of test: Adrenergic α1D selectivity assay, inhibition of [3H]-prazosin binding. Conditions: HEK293 membranes, [3H]-prazosin 0.3 nM; read-out: α1 bind pIC50 (converted). The procedure, abridged: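 HEK293 membranes expressing recombinant human α1D, with 0.3 nM [3H]-prazosin in 50 mM HEPES, 1 mM EDTA, 0.1% gelatin, pH 7.4. Incubation 2 h at room temperature, with 10 μM BMY7378 defining non-specific binding. Filtration and scintillation counting; NSB-subtracted specific binding.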

T2 sequence (P07550 whole entry): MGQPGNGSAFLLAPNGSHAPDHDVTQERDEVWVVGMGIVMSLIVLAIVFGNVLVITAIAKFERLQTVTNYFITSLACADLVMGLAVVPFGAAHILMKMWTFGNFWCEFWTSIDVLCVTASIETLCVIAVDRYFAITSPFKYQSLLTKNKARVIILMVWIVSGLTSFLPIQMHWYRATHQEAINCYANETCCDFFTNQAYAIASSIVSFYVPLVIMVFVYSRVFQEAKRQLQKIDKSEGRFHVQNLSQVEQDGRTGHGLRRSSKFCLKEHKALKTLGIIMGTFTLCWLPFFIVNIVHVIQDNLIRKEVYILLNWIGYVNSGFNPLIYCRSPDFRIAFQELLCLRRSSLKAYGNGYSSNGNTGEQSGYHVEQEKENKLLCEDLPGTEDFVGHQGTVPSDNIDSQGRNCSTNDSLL
T1 sequence (P08588 whole entry): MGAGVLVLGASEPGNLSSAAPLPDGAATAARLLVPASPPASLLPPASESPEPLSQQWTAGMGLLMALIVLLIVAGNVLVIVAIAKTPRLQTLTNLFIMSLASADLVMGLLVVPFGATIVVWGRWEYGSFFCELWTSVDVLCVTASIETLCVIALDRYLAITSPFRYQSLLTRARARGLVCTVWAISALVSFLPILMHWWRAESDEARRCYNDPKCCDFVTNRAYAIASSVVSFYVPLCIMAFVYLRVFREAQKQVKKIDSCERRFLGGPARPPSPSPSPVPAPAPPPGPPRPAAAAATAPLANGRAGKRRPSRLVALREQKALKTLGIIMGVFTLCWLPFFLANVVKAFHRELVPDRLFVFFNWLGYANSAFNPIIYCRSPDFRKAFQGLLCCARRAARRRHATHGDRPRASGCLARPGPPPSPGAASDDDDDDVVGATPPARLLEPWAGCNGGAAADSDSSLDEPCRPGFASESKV

`O=c1[nH]c2c(O)ccc([C@@H](O)CNCCCS(=O)(=O)CCOCCc3cccc4ccccc34)c2s1` [Example 2, 4-Hydroxy-7-((1R)-1-hydroxy-2-{[3-({2-[2-(1-naphthyl)ethoxy]ethyl}sulfonyl)propyl]-amino}ethyl)-1,3-benzothiazol-2(3H)-one trifluoroacetate]: the IC50 in test [1] was 15.8 nM. For the same compound, on Adrenergic β2, the EC50 was 0.158 nM and the “β2 Int Act” value is recorded as 1. Moreover, the IC50 in test [2] is 1000 nM.

As for `Cl.O=c1[nH]c2c(O)ccc([C@@H](O)CNCCSCCOCCc3cccc4ccccc34)c2s1` [Example 4, 4-Hydroxy-7-((1R)-1-hydroxy-2-{[2-({2-[2-(1-naphthyl)ethoxy]ethyl}thio)ethyl]-amino}ethyl)-1,3-benzothiazol-2(3H)-one hydrochloride], the IC50 in test [1] is 126 nM. Moreover, on Adrenergic β2, the EC50 is 0.1 nM and the “β2 Int Act” value amounted to 0.9. Besides, the IC50 in test [2] was 200 nM.
